The assay deals with T1, interaction between biotinylated human S100A9 and human RAGE-Fc (Homo sapiens, UniProt P06702).
T1 construct: made in house; host or cells: E. coli
T1 sequence (P06702 1-114): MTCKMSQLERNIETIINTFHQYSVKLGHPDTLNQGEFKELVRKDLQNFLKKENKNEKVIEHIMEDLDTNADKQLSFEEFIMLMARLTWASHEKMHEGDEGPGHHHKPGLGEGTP
As to the kind of experiment: AlphaScreen inhibition assay, biot-hS100A9:hRAGE-Fc. Conditions: biot-hS100A9 pre-incubated with compound 1 h, assay buffer with CaCl2 and ZnCl2. Type of assay: binding. From the text:
Inhibition Assay, Biot-hS100A9:hRAGE-Fc
The AlphaScreen (Amplified Luminescent Proximity Homogeneous Assay) contains two types of beads, Alpha Donor beads and Acceptor beads (PerkinElmer). Upon laser excitation at 680 nm a photosensitizer in the Donor bead converts ambient oxygen to a more excited singlet state. The singlet oxygen molecule diffuses (maximum 200 nm) to react with a thioxene derivative in the Acceptor bead and generates a chemiluminescence reaction. Fluorophores in the Acceptor bead subsequently emit light at 520-620 nm which can be detected in the EnVision® Multilabel plate Reader (PerkinElmer). The beads are light sensitive and all work with the beads is performed under subdued light conditions or using green filters on light sources (Roscolux Chroma Green #389, Rosco).
In the AlphaScreen Inhibition Assay described here, protein A (Staphylococcus aureus) conjugated Acceptor beads are used together with streptavidin coated Donor beads (Perkin Elmer 6760617M). The Acceptor beads are pre-incubated with Fc-tagged recombinant human RAGE (rhRAGE-Fc) allowing binding of the rhRAGE-Fc to protein A on the beads. Biotinylated human S100A9 (biot-hS100A9) is pre-incubated with the low molecular test compounds. The pre-mixes are then added to the wells of a micro-plate and incubated allowing interaction between biot-hS100A9 and rhRAGE-Fc. Subsequent addition of streptavidin coated Donor beads causes binding of the streptavidin to the biotinylated hS100A9. After an additional incubation the signal is measured.
Without inhibitory compounds, the interaction of biot-hS100A9 to rhRAGE-Fc will bring the Acceptor and Donor beads in close proximity thus generating a high signal. With an inhibitor present the complex will not form resulting in a decreased signal. The assay is illustrated in FIG. 1.
Chemicals and Reagents. • AlphaScreen® General IgG (Protein A) Detection Kit, (PerkinElmer 6760617M) • HBS-P buffer (GE Healthcare, BR-1003-68) • HBS-N buffer (GE Healthcare, BR-1003-69) • CaCl2 in HBS-P • ZnCl2 in Milli-Q water • DMSO • Biotinylated hS100A9, (biotinylated via cystein by EZ-link Iodoacetyl-PEG2-Biotin reagent (Pierce no. 21334), in HBS-N • rhRAGE-Fc (R&D Systems, 1145-RG-50), in HBS-P
The AlphaScreen assay method is used for screening of the inhibitory effect of different compound samples at fixed concentrations or for IC50 determination by varying the compound concentrations. Samples of test compounds and references are prepared from solutions in DMSO. Relevant reference inhibitors and DMSO are used as controls for defined inhibition and non-inhibition, respectively in the assay. The percent inhibition in assay for test compounds and references are calculated by comparing their obtained assay signals with the signal values for the control with only DMSO (no compound).
Assay concentration of biotinylated hS100A9 and rhRAGE-Fc are batch dependent, and are determined and defined by separate cross-titration experiments using this AlphaScreen inhibition method to verify the optimal setup regarding signal strength and achievement of a defined inhibition with relevant reference compounds. The Final assay concentrations of Acceptor and Donor beads are 20 μg/mL.
Assay buffer is prepared by adding CaCl2 and ZnCl2 to HBS-P and is used freshly prepared in the experiment.
Biotin-hS100A9 solution for the experiment is prepared by dilution of appropriate amount of stock solution biot-hS100A9 in assay buffer (with CaCl2 and ZnCl2) and incubation in room temperature for 30 minutes.
rhRAGE-Fc solution for the experiment is prepared by dilution appropriate amount of rhRAGE-Fc stock in assay buffer.
Protein A Acceptor beads are diluted in assay buffer and are added to an equal volume of the prepared diluted rhRAGE-Fc solution. The beads are light sensitive. The vial is covered with aluminum foil and incubated at room temperature in the dark until biot-hS100A9+compound incubation is finished (see below). […]
(In Alpha technology, singlet oxygen from a donor bead excites a nearby acceptor bead.)

In patent US10385069B2, “Imidazo[2,1-B]thiazole and 5,6-dihydroimidazo[2,1-B]thiazole derivatives useful as S100-inhibitors” (Active Biotech AB, priority 2015, dated 2019) one finds IC50 data, which are given here for 28 compounds.

The term IC50 denotes the point on the concentration scale where inhibition reaches its midpoint. With `CC1CCCc2c1sc1nc(C(=O)NS(C)(=O)=O)cn21` (single isomer, unassigned) [Example 48, N-Methanesulfonyl-9-methyl-7-thia-2,5-diazatricyclo[6.4.0.0^2,6]dodeca-1(8),3,5-triene-4-carboxamide], the IC50 stood at 1200 nM.
`CC1CCCc2c1sc1nc(C(=O)NS(C)(=O)=O)cn21` (single isomer, unassigned) [Example 49, N-Methanesulfonyl-9-methyl-7-thia-2,5-diazatricyclo[6.4.0.0^2,6]dodeca-1(8),3,5-triene-4-carboxamide]: the IC50 amounted to 1010 nM.
With `O=C(O)[C@@H]1CN2C(=N1)Sc1c2ccc(F)c1Cl` (single isomer, unassigned) [Example 236] the figure was 1300 nM; with `O=C(O)[C@H]1CN2C(=N1)Sc1c2ccc(F)c1Cl` (single isomer, unassigned) [Example 237], 680 nM.
With `C[C@]1(C(=O)O)CN2C(=N1)Sc1c2ccc(F)c1Cl` (single isomer, unassigned) [Example 279a] the figure was 170 nM; with `C[C@@]1(C(=O)O)CN2C(=N1)Sc1c2ccc(F)c1Cl` (single isomer, unassigned) [Example 279b], 390 nM.
As for `O=C(O)c1cn2c(n1)sc1c(Cl)c(Cl)ccc12` [Example 1, 9,10-Dichloro-7-thia-2,5-diazatricyclo[6.4.0.0^2,6]dodeca-1(8),3,5,9,11-pentaene-4-carboxylic acid], the figure is 130 nM.
Turning to `O=C(O)c1cn2c(n1)sc1c(Cl)c(F)ccc12` [Example 2, 9-Chloro-10-fluoro-7-thia-2,5-diazatricyclo[6.4.0.0^2,6]dodeca-1(8),3,5,9,11-pentaene-4-carboxylic acid], the half-inhibitory concentration (IC50) was found to be 250 nM.
For the compound `O=C(O)c1cn2c(n1)sc1c(F)c(Cl)ccc12` [Example 3, 10-Chloro-9-fluoro-7-thia-2,5-diazatricyclo[6.4.0.0^2,6]dodeca-1(8),3,5,9,11-pentaene-4-carboxylic acid], the IC50 came to 350 nM.
In the case of `O=C(O)c1cn2c(n1)sc1cc(OC(F)(F)F)ccc12` [Example 4, 10-(Trifluoromethoxy)-7-thia-2,5-diazatricyclo[6.4.0.0^2,6]dodeca-1(8),3,5,9,11-pentaene-4-carboxylic acid], the concentration for half-maximal inhibition (IC50) came to 1160 nM.
With `O=C(O)c1cn2c(n1)sc1c(Cl)cccc12` [Example 5, 9-Chloro-7-thia-2,5-diazatricyclo[6.4.0.0^2,6]dodeca-1(8),3,5,9,11-pentaene-4-carboxylic acid] the figure was 1300 nM.
With `O=C(O)c1cn2c(n1)sc1cccc(Cl)c12` [Example 7, 12-Chloro-7-thia-2,5-diazatricyclo[6.4.0.0^2,6]dodeca-1(8),3,5,9,11-pentaene-4-carboxylic acid] the figure was 2160 nM; with `O=C(O)c1cn2c(n1)sc1cc(Cl)ccc12` [Example 8, 10-Chloro-7-thia-2,5-diazatricyclo[6.4.0.0^2,6]dodeca-1(8),3,5,9,11-pentaene-4-carboxylic acid], 2700 nM; with `O=C(O)c1cn2c(n1)sc1cc(F)ccc12` [Example 10, 10-Fluoro-7-thia-2,5-diazatricyclo[6.4.0.0^2,6]dodeca-1(8),3,5,9,11-pentaene-4-carboxylic acid], 2970 nM.
As for `Cc1ccc2c(c1)sc1nc(C(=O)O)cn12` [Example 11, 10-Methyl-7-thia-2,5-diazatricyclo[6.4.0.0^2,6]dodeca-1(8),3,5,9,11-pentaene-4-carboxylic acid], the figure is 5020 nM; as for `O=C(O)c1cn2c(n1)sc1ccc(Cl)cc12` [Example 12, 11-Chloro-7-thia-2,5-diazatricyclo[6.4.0.0^2,6]dodeca-1(8),3,5,9,11-pentaene-4-carboxylic acid], 5610 nM; as for `O=C(O)c1cn2c(n1)sc1cc(Br)ccc12` [Example 13, 10-Bromo-7-thia-2,5-diazatricyclo[6.4.0.0^2,6]dodeca-1(8),3,5,9,11-pentaene-4-carboxylic acid], 1300 nM.
On to `O=C(O)c1cn2c(n1)sc1cc(C(F)(F)F)ccc12` [Example 14, 10-(Trifluoromethyl)-7-thia-2,5-diazatricyclo[6.4.0.0^2,6]dodeca-1(8),3,5,9,11-pentaene-4-carboxylic acid], for which the IC50 came to 2140 nM.
Turning to `O=C(O)c1cn2c(n1)sc1cc(Cl)cc(Cl)c12` [Example 16, 10,12-Dichloro-7-thia-2,5-diazatricyclo[6.4.0.0^2,6]dodeca-1(8),3,5,9,11-pentaene-4-carboxylic acid], the half-inhibitory concentration (IC50) came to 1590 nM.
With `O=C(O)c1nc2sc3cc(OC(F)(F)F)ccc3n2c1Br` [Example 17, 3-Bromo-10-(trifluoromethoxy)-7-thia-2,5-diazatricyclo[6.4.0.0^2,6]dodeca-1(8),3,5,9,11-pentaene-4-carboxylic acid], the IC50 is 3410 nM.
For `CC(C)(C)Nc1c(C(=O)O)nc2sc3cc(OC(F)(F)F)ccc3n12` [Example 18, 3-(tert-Butylamino)-10-(trifluoromethoxy)-7-thia-2,5-diazatricyclo[6.4.0.0^2,6]dodeca-1(8),3,5,9,11-pentaene-4-carboxylic acid], the 50% inhibitory concentration (IC50) amounted to 1030 nM.
With `O=C(O)Cc1cn2c(n1)sc1c(Cl)c(Cl)ccc12` [Example 19, 2-{9,10-Dichloro-7-thia-2,5-diazatricyclo[6.4.0.0^2,6]dodeca-1(8),3,5,9,11-pentaen-4-yl}acetic acid] the figure was 720 nM.
On to `CS(=O)(=O)NC(=O)c1cn2c(n1)sc1cc(OC(F)(F)F)ccc12` [Example 20, N-Methanesulfonyl-10-(trifluoromethoxy)-7-thia-2,5-diazatricyclo[6.4.0.0^2,6]dodeca-1(8),3,5,9,11-pentaene-4-carboxamide], for which the IC50 was 2210 nM.
In the case of `CS(=O)(=O)NC(=O)c1cn2c(n1)sc1c(Cl)c(Cl)ccc12` [Example 21, 9,10-Dichloro-N-methanesulfonyl-7-thia-2,5-diazatricyclo[6.4.0.0^2,6]dodeca-1(8),3,5,9,11-pentaene-4-carboxamide], the IC50 was 180 nM.
As for `O=C(NS(=O)(=O)C1CC1)c1cn2c(n1)sc1c(Cl)c(Cl)ccc12` [Example 22, 9,10-Dichloro-N-(cyclopropanesulfonyl)-7-thia-2,5-diazatricyclo[6.4.0.0^2,6]dodeca-1(8),3,5,9,11-pentaene-4-carboxamide], the figure is 280 nM; as for `COCCS(=O)(=O)NC(=O)c1cn2c(n1)sc1c(Cl)c(Cl)ccc12` [Example 23, 9,10-Dichloro-N-(2-methoxyethanesulfonyl)-7-thia-2,5-diazatricyclo[6.4.0.0^2,6]dodeca-1(8),3,5,9,11-pentaene-4-carboxamide], 320 nM; as for `CCS(=O)(=O)NC(=O)c1cn2c(n1)sc1c(Cl)c(Cl)ccc12` [Example 24, 9,10-Dichloro-N-(ethanesulfonyl)-7-thia-2,5-diazatricyclo[6.4.0.0^2,6]dodeca-1(8),3,5,9,11-pentaene-4-carboxamide], 340 nM.
With `O=C(NS(=O)(=O)CC(F)(F)F)c1cn2c(n1)sc1c(Cl)c(Cl)ccc12` [Example 25, 9,10-Dichloro-N-(2,2,2-trifluoroethanesulfonyl)-7-thia-2,5-diazatricyclo[6.4.0.0^2,6]dodeca-1(8),3,5,9,11-pentaene-4-carboxamide] the figure was 180 nM.
